Data from PubChem BioAssay (NCI).
Several values for one entry are separate records, joined by “and”; a condition that tells them apart may be missing. Equal values may be shown once.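 Cultured in 96-well plates, cells were exposed to test compound for 48 hours across five concentrations. At the GI50, growth is halved. At the TGI there is no net growth.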

Key:
Assay in all cases: NCI-60 cell line screen, 48 h
786-0 renal = test system: 786-0 renal
MDA-MB-231 breast = test system: MDA-MB-231 breast
M14 melanoma = test system: M14 melanoma
COLO 205 colon = test system: COLO 205 colon
RXF 393 renal = test system: RXF 393 renal
SR leukemia = test system: SR leukemia
ACHN renal = test system: ACHN renal
PC-3 prostate = test system: PC-3 prostate
A549 NSCLC = test system: A549 NSCLC
SK-MEL-28 melanoma = test system: SK-MEL-28 melanoma

Structure (SMILES)	GI50 (786-0 renal)	TGI (786-0 renal) [µM]	GI50 (MDA-MB-231 breast)	TGI (MDA-MB-231 breast)	GI50 (M14 melanoma)	TGI (M14 melanoma)	GI50 (COLO 205 colon)	TGI (COLO 205 colon)	GI50 (RXF 393 renal)	TGI (RXF 393 renal)	GI50 (SR leukemia)	TGI (SR leukemia)	GI50 (ACHN renal)	TGI (ACHN renal)	GI50 (PC-3 prostate)	TGI (PC-3 prostate)	GI50 (A549 NSCLC)	TGI (A549 NSCLC)	GI50 (SK-MEL-28 melanoma)	TGI (SK-MEL-28 melanoma)
COc1c(N2CCN(CN3C(=O)C(=Nc4ccc(S(=O)(=O)Nc5ncccn5)cc4)c4ccccc43)C(C)C2)c(F)cc2c(=O)c(C(=O)O)cn(C3CC3)c12 (stereo not given)	> 50 µM	> 50	> 50 µM	> 50 µM	> 50 µM	> 50 µM	0.269 µM	> 50 µM	42.4 µM	> 50 µM	12.5 µM	> 50 µM	> 50 µM	> 50 µM	> 50 µM	> 50 µM	> 50 µM	> 50 µM	> 50 µM	> 50 µM
CC1C(=O)C(C)C(c2ccccc2)N(N=O)C1c1ccccc1 (stereo not given)	–	359	–	250 µM	–	> 581 µM	–	> 674 µM	49.6 µM	> 68.4 µM and 171 µM	–	> 1000 µM	–	341 µM	–	754 µM	–	> 1000 µM	–	> 834 µM
Fc1cccc(COc2ccc(Nc3ncnc4cc(-c5ccc[nH]5)sc34)cc2Cl)c1	1.22 µM	5.32	0.734 µM	> 15.7 µM	8.32 µM	> 23.4 µM	5.47 µM	17.5 µM	2.17 µM	6.62 µM	13.6 µM	> 25 µM	2.68 µM	> 16.8 µM	0.77 µM	> 15.7 µM	0.789 µM	4.8 µM	7.96 µM	> 25 µM
COc1cc(-c2cn(-c3ccc(Cl)cc3)c(C)c2C(=O)C(F)(F)F)cc(OC)c1OC	> 100 µM	> 100	> 100 µM	> 100 µM	> 100 µM	> 100 µM	> 100 µM	> 100 µM	> 100 µM	> 100 µM	4.92 µM	> 100 µM	> 100 µM	> 100 µM	13.6 µM	> 100 µM	17.9 µM	> 100 µM	> 100 µM	> 100 µM
COc1ccc(-c2cncn2-c2ccc(OC)cc2)cc1	21.9 µM	49.1	21.3 µM	71 µM	20.8 µM	46.9 µM	–	–	0.376 µM	9.46 µM	–	–	21.3 µM	60.4 µM	30 µM	> 100 µM	20.6 µM	49.3 µM	–	–
OCc1ccc(-c2nn(Cc3ccccc3)c3ccccc23)o1	24 µM and 4.69 µM	> 81.6	19.6 µM and 22.2 µM	60.3 µM and 55.2 µM	21.1 µM and 29.2 µM	45.6 µM and > 57.8 µM	8.05 µM and 5.73 µM	26.2 µM and 21.7 µM	7.94 µM and 14.8 µM	30.7 µM and 38 µM	12 µM and 4.48 µM	45.2 µM and 39.6 µM	19.8 µM and 16 µM	91.9 µM and 39.8 µM	21.8 µM and 16.6 µM	64.7 µM and 36 µM	15.6 µM and 18.5 µM	47.7 µM and > 56.9 µM	16.9 µM and 15.7 µM	36.5 µM and 47.5 µM
O=C1C(Cl)=C(Nc2cccc(O)c2)C(=O)N1c1cc(Cl)c(Cl)cc1Cl	16.7 µM	32.7	12.7 µM	29.5 µM	20.8 µM	40.9 µM	18 µM	38 µM	14.9 µM	30.6 µM	10.3 µM	59.7 µM	14.4 µM	27.5 µM	15.2 µM	31.6 µM	21.7 µM	47.5 µM	18.5 µM	36.3 µM
COC(=O)CNC(=O)[C@@H](OC)[C@@H]1Cc2cc3cc(OC4CC(OC5CC(O)C(O)C(C)O5)C(O)C(C)O4)c(C)c(O)c3c(O)c2C(=O)[C@H]1OC1CC(OC2CC(OC3CC(C)(O)C(O)C(C)O3)C(O)C(C)O2)C(O)C(C)O1 (stereo not given in full)	0.26 µM	> 50	0.267 µM	> 50 µM	0.239 µM	2.4 µM	0.148 µM	1.18 µM	0.0877 µM	0.355 µM	0.0298 µM	> 50 µM	0.19 µM	6.94 µM	0.234 µM	> 50 µM	0.183 µM	> 50 µM	0.11 µM	1.03 µM
CCCCN(Cc1ccc(F)cc1)c1ccc(CO)c(Cl)c1	12.2 µM	25.6	14.8 µM	29 µM	17.5 µM	34.6 µM	14 µM	27.2 µM	7.16 µM	21.1 µM	14.6 µM	34.7 µM	15.4 µM	29.7 µM	13.8 µM	28.4 µM	7.38 µM	21.6 µM	14.8 µM	28.4 µM
C=C1C(=O)O[C@H]2[C@H]1CC/C(COC(=O)N1CCC[C@H]1C(=O)Nc1ccc(OC)c(C(N)=O)c1O)=C\CC[C@@]1(C)O[C@@H]21	2.27 µM	6.56	2.68 µM	10.1 µM	1.89 µM	4.19 µM	1.6 µM	3.28 µM	1.2 µM	2.79 µM	1.59 µM	12.7 µM	2.9 µM	10.9 µM	4.95 µM	18.9 µM	14.7 µM	35.1 µM	2.87 µM	10.2 µM
Cn1ccnc1C(=O)/C=C/c1ccc(CC(=O)Nc2ccccc2)cc1	2.67 µM	7.86	2.37 µM	9.61 µM	4.55 µM	10.8 µM	3.77 µM	9.39 µM	3.86 µM	7.99 µM	1.16 µM	18.9 µM	5.24 µM	15.6 µM	3.29 µM	8.55 µM	6.6 µM	> 25 µM	5.69 µM	17.8 µM
C=C(C)C(=O)O[C@H]1[C@H]2[C@H](OC(=O)[C@H]2C)[C@H](O)[C@@H](C)[C@@H]2C=CC(=O)[C@]21C	–	5.21	–	14 µM	–	38.5 µM	–	9.97 µM	–	4.13 µM	–	5.39 µM	–	12.7 µM	–	18.5 µM	–	12.5 µM	–	5.85 µM
